The text below walks through data of ChEMBL document CHEMBL5724914, “Linking interpersonal differences in gut microbiota composition and drug biotransformation activity” (2024).

For series [1] the following is noted: human gut metagenome, 24 h, 2 µM.
The nature of series [2]: The drug is tested on Z-012 corresponding to metagenome with ENA study accession number: PRJEB37062 and ENA sample accession number: ERS12561812 for biotransformation under anaerobic condition. The drug concentrations were measured over 9 timepoints collected between 0 and 24 hours of incubation by liquid-chromatography-coupled mass spectrometry (LC–MS). The note with it: 2 µM.

Series [3] can be described thus: The drug is tested on WLS-082 corresponding to human gut metagenome with ENA study accession number: PRJEB37062 and ENA sample accession number: ERS12561751 for biotransformation under anaerobic condition. The drug concentrations were measured over 9 timepoints collected between 0 and 24 hours of incubation by liquid-chromatography-coupled mass spectrometry (LC–MS). The note with it: 2 µM.

The nature of series [4]: The drug is tested on Z-024 corresponding to pig gut metagenome with ENA study accession number: PRJEB37062 and ENA sample accession number: ERS12561823 for biotransformation under anaerobic condition. The drug concentrations were measured over 9 timepoints collected between 0 and 24 hours of incubation by liquid-chromatography-coupled mass spectrometry (LC–MS). The note with it: 2 µM.

The conditions of series [5]: human gut metagenome, 24 h, 2 µM. The source holds these as a separate data set.
The conditions of series [6]: human gut metagenome, 24 h, 2 µM. The source holds these as a separate data set.
Series [7] can be described thus: The drug is tested on Z-028 corresponding to mouse gut metagenome with ENA study accession number: PRJEB37062 and ENA sample accession number: ERS12561827 for biotransformation under anaerobic condition. The drug concentrations were measured over 9 timepoints collected between 0 and 24 hours of incubation by liquid-chromatography-coupled mass spectrometry (LC–MS). The note with it: 2 µM.

Series [8] is described as follows: The drug is tested on WLS-010 corresponding to human gut metagenome with ENA study accession number: PRJEB37062 and ENA sample accession number: ERS12561743 for biotransformation under anaerobic condition. The drug concentrations were measured over 9 timepoints collected between 0 and 24 hours of incubation by liquid-chromatography-coupled mass spectrometry (LC–MS). The note with it: 2 µM.

The nature of series [9]: The drug is tested on Z-029 corresponding to rat gut metagenome with ENA study accession number: PRJEB37062 and ENA sample accession number: ERS12561828 for biotransformation under anaerobic condition. The drug concentrations were measured over 9 timepoints collected between 0 and 24 hours of incubation by liquid-chromatography-coupled mass spectrometry (LC–MS). The note with it: 2 µM.

Series [10] is described as follows: The drug is tested on Z-001 corresponding to mouse gut metagenome with ENA study accession number: PRJEB37062 and ENA sample accession number: ERS12561801 for biotransformation under anaerobic condition. The drug concentrations were measured over 9 timepoints collected between 0 and 24 hours of incubation by liquid-chromatography-coupled mass spectrometry (LC–MS). The note with it: 2 µM.

A short description of series [11]: The drug is tested on WLS-052 corresponding to human gut metagenome with ENA study accession number: PRJEB37062 and ENA sample accession number: ERS12561747 for biotransformation under anaerobic condition. The drug concentrations were measured over 9 timepoints collected between 0 and 24 hours of incubation by liquid-chromatography-coupled mass spectrometry (LC–MS). The note with it: 2 µM.

For series [12] the following is noted: human gut metagenome, 24 h, 2 µM. The source holds these as a separate data set.
The conditions of series [13]: human gut metagenome, 24 h, 2 µM. The source holds these as a separate data set.
A short description of series [14]: The drug is tested on WLS-069 corresponding to human gut metagenome with ENA study accession number: PRJEB37062 and ENA sample accession number: ERS12561748 for biotransformation under anaerobic condition. The drug concentrations were measured over 9 timepoints collected between 0 and 24 hours of incubation by liquid-chromatography-coupled mass spectrometry (LC–MS). The note with it: 2 µM.

For series [15] the following is noted: human gut metagenome, 24 h, 2 µM. The source holds these as a separate data set.
Series [16] can be described thus: The drug is tested on Z-018 corresponding to pig gut metagenome with ENA study accession number: PRJEB37062 and ENA sample accession number: ERS12561817 for biotransformation under anaerobic condition. The drug concentrations were measured over 9 timepoints collected between 0 and 24 hours of incubation by liquid-chromatography-coupled mass spectrometry (LC–MS). The note with it: 2 µM.

A short description of series [17]: The drug is tested on Z-011 corresponding to mouse gut metagenome with ENA study accession number: PRJEB37062 and ENA sample accession number: ERS12561811 for biotransformation under anaerobic condition. The drug concentrations were measured over 9 timepoints collected between 0 and 24 hours of incubation by liquid-chromatography-coupled mass spectrometry (LC–MS). The note with it: 2 µM.

The nature of series [18]: The drug is tested on Z-020 corresponding to rabbit gut metagenome with ENA study accession number: PRJEB37062 and ENA sample accession number: ERS12561819 for biotransformation under anaerobic condition. The drug concentrations were measured over 9 timepoints collected between 0 and 24 hours of incubation by liquid-chromatography-coupled mass spectrometry (LC–MS). The note with it: 2 µM.

Series [19] can be described thus: The drug is tested on WLS-220 corresponding to human gut metagenome with ENA study accession number: PRJEB37062 and ENA sample accession number: ERS12561769 for biotransformation under anaerobic condition. The drug concentrations were measured over 9 timepoints collected between 0 and 24 hours of incubation by liquid-chromatography-coupled mass spectrometry (LC–MS). The note with it: 2 µM.

For series [20] the following is noted: human gut metagenome, 24 h, 2 µM. The source holds these as a separate data set.
Note: call rule not given here.

As to `CC[C@@H](CO)NC(=O)[C@@H]1C=C2c3cccc4c3c(cn4C)C[C@H]2N(C)C1.O=C(O)/C=C\C(=O)O` [METHYSERGIDE MALEATE], the “Bacterial Biotransformation” value in series [1], in series [2], in [3], in [4], in series [5] and in series [6] was “Compound NOT metabolized” throughout. In addition, the “Bacterial Biotransformation” value in series [7], in [8], in series [9], in [10], in series [11] and in series [12] was “Compound NOT metabolized” each time. Also, the “Bacterial Biotransformation” value in [13] is recorded as “Compound NOT metabolized”; in series [14], “Compound NOT metabolized”; in [15], “Compound metabolized”; in series [16] it was “Compound NOT metabolized”; in series [17], “Compound NOT metabolized”; in [18], “Compound NOT metabolized”. For the same molecule, the “Bacterial Biotransformation” value is “Compound NOT metabolized” in series [19] and “Compound metabolized” in series [20].
For `CCN(CC)CCNC(=O)c1cc(Cl)c(N)cc1OC` [METOCLOPRAMIDE], the “Bacterial Biotransformation” value in series [1], in series [2], in series [3], in series [4], in series [5] and in [6] was “Compound NOT metabolized” in each case. The “Bacterial Biotransformation” value in series [7], in series [8], in series [9], in series [10], in series [11] and in series [12] was “Compound NOT metabolized” throughout. Besides, the “Bacterial Biotransformation” value in [13], in series [14], in series [15], in series [16], in series [17] and in series [18] was “Compound NOT metabolized” throughout. The “Bacterial Biotransformation” value in series [19] and in series [20] was “Compound NOT metabolized” each time.
Take `Cc1ccccc1N1C(=O)c2cc(S(N)(=O)=O)c(Cl)cc2NC1C` (stereo not given) [METOLAZONE]: the “Bacterial Biotransformation” value was “Compound metabolized” in [1]; “Compound NOT metabolized” in [2]; “Compound NOT metabolized” in series [3]; “Compound NOT metabolized” in series [4]; “Compound metabolized” in series [5]; “Compound NOT metabolized” in series [6]. In addition, the “Bacterial Biotransformation” value in series [7] was “Compound NOT metabolized”; in [8], “Compound NOT metabolized”; in [9], “Compound NOT metabolized”; in series [10] it was “Compound NOT metabolized”; in [11], “Compound metabolized”; in [12] it was “Compound NOT metabolized”. In addition, the “Bacterial Biotransformation” value in [13], in series [14], in series [15], in series [16], in series [17] and in series [18] was “Compound NOT metabolized” in each case. Further, the “Bacterial Biotransformation” value in series [19] and in series [20] was “Compound metabolized” each time.
With `COCCc1ccc(OCC(O)CNC(C)C)cc1.COCCc1ccc(OCC(O)CNC(C)C)cc1.O=C(O)C(O)C(O)C(=O)O` (stereo not given) [METOPROLOL TARTRATE], the “Bacterial Biotransformation” value in series [1] is “Compound metabolized”; in [2] it was “Compound NOT metabolized”; in series [3], “Compound NOT metabolized”; in series [4] it was “Compound NOT metabolized”; in series [5], “Compound NOT metabolized”; in series [6], “Compound NOT metabolized”. Also, the “Bacterial Biotransformation” value in [7], in [8], in series [9], in series [10], in series [11] and in [12] was “Compound NOT metabolized” throughout. Moreover, the “Bacterial Biotransformation” value is given as “Compound NOT metabolized” in series [13]; “Compound NOT metabolized” in [14]; “Compound metabolized” in series [15]; “Compound NOT metabolized” in series [16]; “Compound NOT metabolized” in [17]; “Compound NOT metabolized” in series [18]. Further, the “Bacterial Biotransformation” value in series [19] is reported as “Compound NOT metabolized”; in [20] it was “Compound metabolized”.
Regarding `CCN(CC)CCOC(=O)C(Cc1cccc2ccccc12)CC1CCCO1.O=C(O)C(=O)O` (stereo not given) [NAFRONYL OXALATE], the “Bacterial Biotransformation” value is reported as “Compound metabolized” in series [1]; “Compound metabolized” in series [2]; “Compound metabolized” in series [3]; “Compound metabolized” in [4]; “Compound NOT metabolized” in series [5]; “Compound NOT metabolized” in [6]. The “Bacterial Biotransformation” value in series [7] is “Compound metabolized”; in [8] it was “Compound metabolized”; in series [9], “Compound NOT metabolized”; in series [10], “Compound NOT metabolized”; in series [11], “Compound metabolized”; in series [12] it was “Compound NOT metabolized”. Moreover, the “Bacterial Biotransformation” value in series [13] is listed as “Compound metabolized”; in series [14] it was “Compound metabolized”; in series [15] it was “Compound metabolized”; in [16], “Compound metabolized”; in series [17] it was “Compound NOT metabolized”; in series [18], “Compound metabolized”. The “Bacterial Biotransformation” value in [19] and in series [20] was “Compound metabolized” each time.
